These results are taken from patent US4613603A, “Compounds with a nitrogen-containing heterocyclic nucleus, and drugs in which they are present” (Sanofi, priority 1984, dated 1986).

A word on the ED50: it is the dose that gives a 50% effect, or the effect in half of the subjects.

Data set [1] deals with convulsions induced by an electric shock. The experiment in a line: Antagonism towards the convulsions induced by an electric shock. The data set is classed as in vivo. The note with it: Mus musculus, po, 1 h; mice, administered orally 60 minutes before the electric shock; confidence limits in brackets (p ≤ 0.05); read-out: Median effective dose (ED50) for antagonism towards electric shock. On the procedure:
(§1) The anticonvulsant effect of the products on mice was evaluated on a model involving convulsions caused by an electric shock and on a model involving convulsions induced by a chemical agent: bicuculline.
The test was a slightly modified version of that of SWINYARD et al. [Journal of Pharmacology and Experimental Therapeutics 106, 319-330 (1952)] and ASAMI et al. [Arzneimittel Forschung 24(10), 1563-1568 (1974)]. The equipment consisted of a Racia shock generator fitted with 2 ocular electrodes delivering a current at 12.5 volts for 0.3 second. The groups consisted of 10 CDI Charles River mice weighing between 20 and 24 g.
The products were administered orally 60 minutes before the electric shock.

For another data set, the system named is bicuculline. The experiment in a line: Antagonism towards the convulsions and the mortality caused by bicuculline. The data set is classed as in vivo, mice. Conditions: Mus musculus, po, 1 h. The procedure: as §1
The groups consisted of 10 CDI Charles River mice weighing between 20 and 22 g. The products were administered orally 60 minutes before the bicuculline (0.8 mg/kg, administered intravenously).

Data set [2] is described as follows: Determination of the lethal dose in mice after acute administration. The note with it: mouse, in vivo, po, administered orally, read-out: Percent toxicity (percentage of animals which die within 72 hours). The procedure:
The products were administered orally to groups of 5 female CDI Charles River mice weighing between 20 and 24 g. They were solubilized in 0.1N HCl. The toxicity was recorded for 72 hours following the administration of the products.
The results, expressed as the percentage of animals which die within 72 hours following oral administration of the products, are given in the table above.

Data set [3] deals with contortional movements caused by the administration of acetic acid. Description: Analgesic activity, KOSTER test (acetic acid contortions). The data set is classed as in vivo. The note with it: mice, 25 mg/kg administered orally 30 minutes before i.p. acetic acid. On the procedure:
The analgesic activity of the products according to the invention was evaluated using the KOSTER test (Federation Proceeding 18, 41 (1959)).
The products were administered orally to mice 30 minutes before the intraperitoneal injection of 0.25 ml of 0.1N acetic acid dissolved in 10% gum arabic. The contortions between the fifth and tenth minute and between the fifteenth and twentieth minute after administration of the acid were counted for the control animals and the treated animals.

Data set [4] deals with mortality following the injection of collagen. Description: Antithrombotic activity, mortality following the injection of collagen. The data set is classed as in vivo. Conditions: mice, 200 mg/kg, administered orally.
The mark [5] stands for this setting: read-out: Median effective dose (ED50) for antagonism towards bicuculline, Mortality.
The mark [6] stands for this setting: read-out: Median effective dose (ED50) for antagonism towards bicuculline, Tonic convulsions.

Where a name gives a salt, the structure may show the parent alone. Read-outs that look alike come from different tables or passages of the source.

For the compound `COc1ccc(-c2cnc(N3CCC(O)CC3)nc2)cc1` [SR 43 159, 5-(4-methoxyphenyl)-2-(4-hydroxypiperidino)pyrimidine], the results for the ED50 (in data set [1]; in the data set on bicuculline (setting [5]); in the data set on bicuculline (setting [6])) were 83 mg/kg, 60 mg/kg and 70 mg/kg, respectively. In addition, the mortality at 72 h in data set [2] (250 mg/kg), in data set [2] (500 mg/kg) and in data set [2] (1000 mg/kg) was 0% throughout.
With `CC(=O)OC1CCN(c2ncc(-c3ccc(Cl)cc3Cl)cn2)CC1` [SR 43 651, 2-(4-Acetoxypiperidino)-5-(2,4-dichlorophenyl)pyrimidine], the figures for the median effective dose (ED50) (in data set [1]; in the data set with bicuculline (setting [5]); with bicuculline (setting [6])) were 43 mg/kg, 15.5 mg/kg and 17.2 mg/kg, respectively.
With `OC1CCN(c2ccc(-c3ccc(Cl)cc3Cl)cn2)CC1` [SR 42 903, 5-(2,4-Dichlorophenyl)-2-(4-hydroxypiperidino)pyridine], in data set [1], the ED50 came out at 28 mg/kg.
`O=C(OC1CCN(c2ncc(-c3ccccc3Cl)cn2)CC1)N1CCC(O)CC1` [SR 43 516, 2-[4-(4-hydroxypiperidinocarbonyloxy)piperidino]-5-(2-chlorophenyl)pyrimidine]: the ED50 in data set [1] worked out at 91 mg/kg. Also, the mortality at 72 h in data set [2] (250 mg/kg), in data set [2] (500 mg/kg) and in data set [2] (1000 mg/kg) was 0% throughout.
For `OC1CCN(c2cnc(-c3cccc(Cl)c3)nn2)CC1` [SR 42 904, 3-(3-Chlorophenyl)-6-(4-hydroxypiperidino)-1,2,4-triazine], the median effective dose (ED50) in data set [1] was 59 mg/kg. Besides, the mortality at 72 h in data set [2] (250 mg/kg) and in data set [2] (500 mg/kg) was 0% each time.
Regarding `CN(C)C(=O)OC1CCN(c2ncc(-c3ccccc3Cl)cn2)CC1` [SR 43 537, 2-(4-dimethylcarbamoyloxypiperidino)-5-(2-chlorophenyl)pyrimidine], the ED50 in data set [1] was found to be 2.5 mg/kg; in the data set on bicuculline (setting [5]), 3 mg/kg; in the data set on bicuculline (setting [6]), 3.3 mg/kg.
Consider `OC1CCN(c2ncc(-c3ccc(Cl)cc3Cl)nn2)CC1` [SR 42 825, 6-(2,4-Dichlorophenyl)-3-(4-hydroxypiperidino)-1,2,4-triazine], for which, in data set [3], the “Antagonism towards the contortional movements (percent/control animals)” value is recorded as -57%. The median effective dose (ED50) in data set [1] came out at 16 mg/kg; in the data set on bicuculline (setting [5]) it was 3.3 mg/kg; in the data set on bicuculline (setting [6]), 3.1 mg/kg. Besides, the mortality at 72 h in data set [2] (250 mg/kg) was 20%; in data set [2] (500 mg/kg) it was 20%; in data set [2] (1000 mg/kg), 80%.
For `OC1CCN(c2cnc(-c3ccc(Cl)cc3)nn2)CC1` [SR 42 833, 3-(4-Chlorophenyl)-6-(4-hydroxypiperidino)-1,2,4-triazine], the “Antagonism towards the contortional movements (percent/control animals)” value in data set [3] was -31%. The mortality at 72 h in data set [2] (250 mg/kg) and in data set [2] (500 mg/kg) was 0% each time.
Take `CN(C)C(=O)OC1CCN(c2ncc(-c3ccc(Cl)cc3Cl)cn2)CC1` [SR 43 539, 2-(4-Dimethylcarbamoyloxypiperidino)-5-(2,4-dichlorophenyl)pyrimidine]: the median effective dose (ED50) worked out at 2.5 mg/kg in data set [1], 0.7 mg/kg in the data set on bicuculline (setting [5]) and 1.1 mg/kg in the data set on bicuculline (setting [6]).
For `O=C1CCN(c2ccc(-c3ccccc3Cl)cn2)CC1` [SR 42 696, 5-(2-Chlorophenyl)-2-(4-oxopiperidino)pyridine acid maleate], the mortality at 72 h in data set [2] (250 mg/kg) and in data set [2] (500 mg/kg) was 0% each time.
Take `OC1CCN(c2ncc(-c3cccc(Cl)c3)cn2)CC1` [SR 42 922, 5-(3-chlorophenyl)-2-(4-hydroxypiperidino)pyrimidine]: the mortality at 72 h in data set [2] (250 mg/kg), in data set [2] (500 mg/kg) and in data set [2] (1000 mg/kg) was 0% in each case.
Consider `O=C1CCN(c2ncc(-c3ccccc3Cl)nn2)CC1` [SR 42 642, 6-(2-Chlorophenyl)-3-(4-oxopiperidino)-1,2,4-triazine], for which the ED50 in data set [1] was 40 mg/kg. Also, the mortality at 72 h in data set [2] (250 mg/kg) and in data set [2] (500 mg/kg) was 0% each time.
In the case of `OC1CCN(c2ncc(-c3ccccc3Cl)nn2)CC1` [SR 42 524, 6-(2-Chlorophenyl)-3-(4-hydroxypiperidino)-1,2,4-triazine], the ED50 in data set [1] is 24 mg/kg; in the data set with bicuculline (setting [5]), 72 mg/kg; with bicuculline (setting [6]), 71 mg/kg. For the same compound, the “Protection from mortality following the injection of collagen” value in data set [4] was “protected mice from mortality following the injection of collagen”. For the same compound, the mortality at 72 h in data set [2] (250 mg/kg), in data set [2] (500 mg/kg) and in data set [2] (1000 mg/kg) was 0% in each case.
`O=C1CCN(c2ncc(-c3ccc(Cl)cc3Cl)nn2)CC1` [SR 42 826, 6-(2,4-Dichlorophenyl)-3-(4-oxopiperidino)-1,2,4-triazine]: the “Antagonism towards the contortional movements (percent/control animals)” value in data set [3] is given as -42%. In addition, the ED50 in data set [1] turned out to be 26 mg/kg; in the data set with bicuculline (setting [5]) it was 3.4 mg/kg; in the data set on bicuculline (setting [6]), 3.2 mg/kg. For the same compound, the mortality at 72 h in data set [2] (250 mg/kg) is 0%; in data set [2] (500 mg/kg) it was 20%.
As for `OC1CCN(c2ncc(-c3cccc4ccccc34)cn2)CC1` [SR 43 139, 5-(naphthyl-1)-2-(4-hydroxypiperidino)pyrimidine], the ED50 worked out at 43 mg/kg in data set [1], 44 mg/kg with bicuculline (setting [5]) and 46 mg/kg in the data set with bicuculline (setting [6]). The mortality at 72 h in data set [2] (250 mg/kg), in data set [2] (500 mg/kg) and in data set [2] (1000 mg/kg) was 0% in each case.
Regarding `CNC(=O)OC1CCN(c2ncc(-c3ccccc3Cl)cn2)CC1` [SR 43 543, 2-(4-Methylcarbamoyloxypiperidino)-5-(2-chlorophenyl)pyrimidine], the ED50 in data set [1] amounted to 19 mg/kg; in the data set with bicuculline (setting [5]), 3.9 mg/kg; with bicuculline (setting [6]) it was 4.3 mg/kg. Besides, the mortality at 72 h came out at 0% in data set [2] (250 mg/kg), 0% in data set [2] (500 mg/kg) and 20% in data set [2] (1000 mg/kg).
For the compound `OC1CCN(c2ccc(-c3ccccc3Cl)cn2)CC1` [SR 42 482, 5-(2-Chlorophenyl)-2-(4-hydroxypiperidino)-pyridine acid maleate], the “Antagonism towards the contortional movements (percent/control animals)” value in data set [3] is given as -50%. The mortality at 72 h in data set [2] (250 mg/kg), in data set [2] (500 mg/kg) and in data set [2] (1000 mg/kg) was 0% each time.
With `OC1CCN(c2ncc(-c3ccccc3Cl)cn2)CC1` [SR 42 505, 5-(2-Chlorophenyl)-2-(4-hydroxypiperidino)pyrimidine], the “Antagonism towards the contortional movements (percent/control animals)” value in data set [3] is on record as -36%. Moreover, the median effective dose (ED50) worked out at 42 mg/kg in data set [1], 54 mg/kg in the data set with bicuculline (setting [5]) and 52 mg/kg with bicuculline (setting [6]). Moreover, the mortality at 72 h in data set [2] (250 mg/kg) is 0%; in data set [2] (500 mg/kg), 0%; in data set [2] (1000 mg/kg), 80%.
Take `OC1CCN(c2ncc(-c3ccc(Cl)cc3)cn2)CC1` [SR 42 921, 5-(4-chlorophenyl)-2-(4-hydroxypiperidino)pyrimidine]: the mortality at 72 h in data set [2] (250 mg/kg) and in data set [2] (500 mg/kg) was 0% each time.
Take `OC1CCN(c2ncc(-c3ccc(Cl)cc3Cl)cn2)CC1` [SR 42 824, 5-(2,4-dichlorophenyl)-2-(4-hydroxypiperidino)pyrimidine]: the “Antagonism towards the contortional movements (percent/control animals)” value in data set [3] is listed as -80%. In addition, the 50% effective dose (ED50) in data set [1] is 20 mg/kg; in the data set with bicuculline (setting [5]), 8 mg/kg; with bicuculline (setting [6]) it was 9.4 mg/kg. For the same compound, the mortality at 72 h in data set [2] (250 mg/kg) and in data set [2] (500 mg/kg) was 0% throughout.
